US11752196B2, “Treatment of pyroptosis” (priority 2018, dated 2023)

Tested on: GSDMD cleavage in Huh7 hepatocytes
Assay: LPS-induced pyroptosis (GSDMD cleavage) in Huh7 hepatocytes pre-treated with tunicamycin and/or very low-dose LPS
Format: cell-based, Human
Details: tunicamycin and/or LPS 1 μg/ml for 24 hours, then LPS 30 μg/ml
Experimental: FIG. 13—LPS-dependent pyroptosis in hepatocytes and priming by ER stress.
All measurements were performed in triplicate.
In addition to hepatocyte ER stress, increased levels of circulating endotoxin are detected in advanced liver disease. Therefore, to determine the importance of hepatocyte ER stress and low-level endotoxin exposure as mediators of upregulation of the caspase-4/11 pathway, Huh7 hepatocytes were pre-treated with the ER stress inducer, tunicamycin and/or very low-dose LPS (1 μg/ml) for 24 hours, prior to the LPS ‘hit’ (30 μg/ml) (FIG. 13). […] Importantly, in these experiments hepatocyte pyroptosis was independent of the TLR4 pathway, as GSDMD cleavage was not inhibited by the TLR4 antagonist TAK-242. Caspase-11 deficient mice are protected from hepatic and extra-hepatic organ injury in ACLF Casp11^−/− mice are deficient in the caspase-11 pathway, but the caspase-1 pathway remains intact. Casp11^−/− mice develop a similar level of advanced fibrosis/cirrhosis compared to wildtype (wt) after treatment with 20 doses of CCl4 (FIG. 14A).

Q: For CCOC(=O)C1=CCCC[C@H]1S(=O)(=O)Nc1ccc(F)cc1Cl [TAK-242], which “GSDMD cleavage (inhibition by TLR4 antagonist)” value is on record?
A: Its value is “not inhibited”.
